Some test systems named below: HL-60(TB) leukemia; OVCAR-3 ovarian; MCF7 breast; COLO 205 colon; OVCAR-5 ovarian; SN12C renal; UACC-62 melanoma; SK-MEL-5 melanoma; HCT-116 colon; UO-31 renal.
Assay in all cases: NCI tumour cell line growth inhibition, 48 h

Structures are written as SMILES. “And” between values parts separate entries of the source, which are not always exact repeats. Identical values can stand only once.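 In this assay, cells in 96-well plates receive the compound at five concentrations for 48 hours. Endpoints are linearly interpolated between the surrounding concentrations. Here, GI50 denotes the concentration required for 50% inhibition of growth. TGI: concentration producing complete growth inhibition.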

For the compound `O=C(O)C(=O)CBr`, the GI50 in the test on HL-60(TB) leukemia is 12.1 µM and 18.9 µM; with OVCAR-3 ovarian it was > 21.1 µM and 3.61 µM; in the test on MCF7 breast, > 61400 nM and 29300 nM; in the test with COLO 205 colon, > 70.1 µM and 17.6 µM; with OVCAR-5 ovarian, > 44.2 µM and 18.4 µM; in the test on SN12C renal, > 46.2 µM and 19.1 µM. In addition, the GI50 with UACC-62 melanoma was > 44700 nM and 19000 nM; with SK-MEL-5 melanoma, > 100 µM and 65.8 µM; with HCT-116 colon, > 38.9 µM and 18.5 µM; in the test on UO-31 renal it was > 38 µM and 17.3 µM. Further, the TGI was 46.1 µM and 45.1 µM in the test with HL-60(TB) leukemia; > 40.2 µM and 13 µM in the test with OVCAR-3 ovarian; > 100 µM and 94.7 µM with MCF7 breast; > 100 µM and 39.5 µM in the test with COLO 205 colon; > 64.8 µM and 37.5 µM in the test on OVCAR-5 ovarian; > 64 µM and 34.5 µM in the test on SN12C renal. The TGI in the test with UACC-62 melanoma was > 62.5 µM and 35.3 µM; with SK-MEL-5 melanoma it was > 100 µM; with HCT-116 colon, > 54.2 µM and 33.3 µM; in the test on UO-31 renal it was > 54.7 µM and 31.8 µM.

Regarding `CCCCOc1ccc(/C=N/Nc2cc(C)nc3ccc(Cl)cc23)cc1`, the GI50 is 1.76 µM in the test with HL-60(TB) leukemia; 2.03 µM in the test on OVCAR-3 ovarian; 1650 nM in the test on MCF7 breast; 2.01 µM in the test with COLO 205 colon; 1.82 µM in the test with OVCAR-5 ovarian; 1.63 µM in the test on SN12C renal. The GI50 in the test on UACC-62 melanoma is 1610 nM; with SK-MEL-5 melanoma, 1.61 µM; with HCT-116 colon, 2.13 µM; in the test with UO-31 renal, 1.56 µM. Besides, the TGI in the test with HL-60(TB) leukemia was determined as 3.65 µM; in the test with OVCAR-3 ovarian it was 3.78 µM; in the test on MCF7 breast it was 3.37 µM; in the test with COLO 205 colon, 4.03 µM; in the test on OVCAR-5 ovarian, 3.24 µM; in the test on SN12C renal it was 3.08 µM. In addition, the TGI in the test on UACC-62 melanoma was 3.02 µM; with SK-MEL-5 melanoma, 2.97 µM; in the test on HCT-116 colon, 4.85 µM; in the test on UO-31 renal, 2.93 µM.

In the case of `COc1cc(C2c3cc4c(cc3[C@@H](Nc3ccc(N)cc3)C3COC(=O)[C@H]23)OCO4)cc(OC)c1O` (stereo partly specified), the GI50 with HL-60(TB) leukemia is 0.287 µM and 0.422 µM; in the test on COLO 205 colon it was 0.996 µM; in the test with OVCAR-5 ovarian it was 0.896 µM; in the test on SN12C renal it was 0.492 µM; in the test with UACC-62 melanoma, 711 nM; in the test on SK-MEL-5 melanoma, 0.701 µM. The GI50 in the test on HCT-116 colon is 0.973 µM; in the test with UO-31 renal, 0.727 µM. The TGI in the test with HL-60(TB) leukemia is 0.862 µM and 5.63 µM; in the test with OVCAR-3 ovarian, 20 µM; in the test with MCF7 breast it was 12.3 µM; with COLO 205 colon it was 47.7 µM; in the test with OVCAR-5 ovarian it was 31.6 µM; with SN12C renal, 6.15 µM. For the same compound, the TGI in the test on UACC-62 melanoma is 11.3 µM; in the test with SK-MEL-5 melanoma, 7.09 µM; in the test with HCT-116 colon it was 23 µM; in the test with UO-31 renal, 4.79 µM.

Take `CC(=O)N1CCN(CCOc2ccc(C3CCN(C4=Nn5c(nnc5C(F)(F)F)CC4)CC3)cc2)CC1`: the GI50 in the test with HL-60(TB) leukemia is 4.41 µM; with OVCAR-3 ovarian, 20.8 µM; in the test with MCF7 breast it was 4300 nM; in the test with COLO 205 colon it was 11.5 µM; in the test with OVCAR-5 ovarian it was 89.4 µM; with SN12C renal, 14.5 µM. The GI50 in the test on UACC-62 melanoma was 2840 nM; with SK-MEL-5 melanoma, 6.58 µM; in the test with HCT-116 colon, 15.7 µM; in the test on UO-31 renal, 4.75 µM. The TGI in the test with HL-60(TB) leukemia is 99.4 µM; with OVCAR-3 ovarian, > 100 µM; with MCF7 breast it was > 100 µM; in the test on COLO 205 colon, > 70.6 µM; with OVCAR-5 ovarian, > 100 µM; in the test on SN12C renal, > 100 µM. Moreover, the TGI was > 100 µM in the test on UACC-62 melanoma, 30.8 µM in the test with SK-MEL-5 melanoma, > 100 µM in the test with HCT-116 colon and > 100 µM in the test on UO-31 renal.

Turning to `CCCn1c(N)c(C(=O)CNc2ccc(I)cc2)c(=O)[nH]c1=O`, the GI50 with HL-60(TB) leukemia was 10.5 µM; in the test with OVCAR-3 ovarian, > 48.4 µM; in the test on MCF7 breast, 806 nM; in the test with OVCAR-5 ovarian, > 100 µM; with SN12C renal it was 29.2 µM; in the test with UACC-62 melanoma it was 1150 nM. For the same compound, the values for the GI50 in the test on SK-MEL-5 melanoma and in the test on HCT-116 colon were 0.861 µM and 0.677 µM, respectively. Also, the TGI in the test with HL-60(TB) leukemia, in the test on OVCAR-3 ovarian, in the test on MCF7 breast, in the test with COLO 205 colon, in the test with OVCAR-5 ovarian and in the test with SN12C renal was > 100 µM each time. The TGI with UACC-62 melanoma, in the test on SK-MEL-5 melanoma, in the test with HCT-116 colon and in the test with UO-31 renal was > 100 µM throughout.

On to `Cn1ncc(-c2ccc3c(=O)[nH]nc(CN)c3c2)c1-c1c(F)cc2ccccc2c1C#N`, for which the GI50 is 3.42 µM with HL-60(TB) leukemia; 6.53 µM in the test with OVCAR-3 ovarian; 1520 nM in the test with MCF7 breast; 4.8 µM in the test on COLO 205 colon; 11.3 µM in the test on OVCAR-5 ovarian; 7.53 µM with SN12C renal. Further, the GI50 is 10200 nM with UACC-62 melanoma, 11 µM with SK-MEL-5 melanoma, 3.69 µM in the test with HCT-116 colon and 7.62 µM in the test with UO-31 renal. Also, the TGI amounted to 18.2 µM with HL-60(TB) leukemia; 19.5 µM with OVCAR-3 ovarian; 12.6 µM with MCF7 breast; 18.3 µM in the test on COLO 205 colon; 29.4 µM in the test with OVCAR-5 ovarian; 20.8 µM with SN12C renal. In addition, the TGI was determined as 23.6 µM in the test on UACC-62 melanoma, 22.9 µM in the test on SK-MEL-5 melanoma, 14.5 µM in the test with HCT-116 colon and 20.6 µM in the test with UO-31 renal.

The record behind these values is PubChem BioAssay (NCI).
